US20080050452A1, “METAL-CONTAINING FORMULATIONS AND METHODS OF USE” (priority 2006, published 2008)

System: Ps. aeruginosa
Test: Minimal bactericidal concentration (MBC) assay
Type: cell-based, Pseudomonas aeruginosa
Protocol: Minimal bactericidal concentration (MBC) assay—Overnight-grown MIC plates, prepared as described in Example 16, were evaluated to determine the MIC. Culture was then sampled from wells at and near the MIC using sterile inoculating loops, and transferred to fresh MHA plates to determine if viable bacteria remained. […] The MBC was determined as the well in the MIC plate which contained the lowest concentration of silver yielding no bacterial growth on the MHA plate.

Structure (SMILES): O=[N+]([O-])[O-].[Ag+] [AgNO3, silver nitrate]
- MBC (Ps. aeruginosa ATCC type strain 27317): 3 parts silver per million
- MBC (Ps. aeruginosa isolate NP201): 3 parts silver per million
- MBC (Ps. aeruginosa isolate NP204): 3 parts silver per million
- MBC (Ps. aeruginosa isolate NP206): 1 parts silver per million
